According to patent US7179800B2 (priority 2002, dated 2007):

Columns and labels:
CB2 receptor = target: T1, CB2 receptor (Homo sapiens, UniProt P34972); assay: CB2 binding procedure: displacement of [3H]CP-55,940 from membranes of transfected CHO cells; settings: for CB1/CB2 (ratio of Ki): CB1 Ki divided by CB2 Ki; for Ki: means ± SEM, [3H]CP-55,940, transfected CHO cell membranes, read-out: Ki (nM) CB2
T1 construct: expressed in transfected cells; host or cells: CHO cells, G418-selected transfected line
T1 sequence (P34972 whole entry): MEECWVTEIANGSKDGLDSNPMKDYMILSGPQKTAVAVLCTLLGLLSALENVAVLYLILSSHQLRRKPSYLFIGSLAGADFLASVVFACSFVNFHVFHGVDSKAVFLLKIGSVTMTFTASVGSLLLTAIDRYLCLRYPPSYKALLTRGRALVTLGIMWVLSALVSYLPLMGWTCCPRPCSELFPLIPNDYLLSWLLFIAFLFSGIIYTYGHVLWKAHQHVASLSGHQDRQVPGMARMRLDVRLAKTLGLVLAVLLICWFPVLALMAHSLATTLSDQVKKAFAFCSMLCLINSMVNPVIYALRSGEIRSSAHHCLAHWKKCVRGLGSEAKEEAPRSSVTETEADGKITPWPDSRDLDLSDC
Protocol: Membranes for CB2 binding were obtained from CHO cells. The transfected cell line was maintained in Dublecco's Modified Eagle Medium (Gibco BRL, Grand Island, N.Y.) with 10% fetal clone II (HyClone Laboratories, Inc., Logan, Utah) plus 0.3 to 0.5 mg/ml G418 (to maintain selective pressure) under 5% CO2 at 37% C. Cells were harvested with 1 mM EDTA in phosphate-buffered saline and were centrifuged at 1000×g for 5 min at 4% C. The supernatant was saved and the P1 pellet was resuspended in centrifugation buffer. Homogenization and centrifugation were repeated twice and the combined supernatant fractions were centrifuged at 40,000×g for 30 min at 4% C. The P2 pellet was resuspended in centrifugation buffer 2 (Tris HCl, 50 mM; EDTA, 1 mM; and MgCl2, 3 mM, pH 7.4) to a protein concentration of approximately 2 mg/ml. Protein concentrations were determined by the method of Bradford (1976) using Bio-Rad Protein Assay (Bio-Rad, Richmond, Calif.) and BSA standards (fatty acid free, Sigma Chemical Co., St. Louis, Mo.). The membrane preparation was divided into amounts convenient for binding assays and frozen rapidly in dry ice and stored at −80% C.
Binding was initiated by the addition of 50 μg of quickly thawed P2 membranes to test tubes containing [^3H]CP-55,940 (final reaction concentration 0.5 nM), an appropriate concentration of unlabeled CP-55,940 or test drug, and sufficient quantity of assay buffer (50 mM Tris-HCl, 1 mM EDTA, 3 mM MgCl2, 5 mg/ml bovine serum albumin, pH 7.4) to bring the total incubation volume to 0.5 ml. Concentration of [^3H]CP-55,940 in saturation studies ranged from 50 to 10,000 pM. Nonspecific binding was determined by the addition of 1 μM unlabeled CP-55,940. CP-55,940 and all cannabinoid analogs were prepared by suspension in assay buffer from a 1 mg/ml ethanolic stock without evaporation of the ethanol (final concentration of no more than 0.4%). In competition studies, analog concentrations ranged from 0.1 nM to 10 μM. After incubation at 30% C for 1 hr, binding was terminated by the addition of 2 ml of ice-cold wash buffer (50 mM Tris-HCl and 1 mg/ml BSA) and vacuum filtration through pre-treated filters in a 12-well sampling manifold (Millipore, Bedford, Mass.). Reaction vessels were washed once with 2 ml of ice-cold wash buffer. Filters were placed into 7-ml plastic scintillation vials (RPI Corp., Mount Prospect, Ill.) with 4 ml of Budget-Solve (RPI Corp.). After shaking for 30 min, the radioactivity present was determined by liquid scintillation spectrometry. Three reaction vessels were used for each drug concentration in each assay. The results represent the combined data of three independent experiments. All assays were performed in siliconized test tubes, which were prepared by air drying (12 hr) inverted borosilicate tubes after two rinses with a 0.1% solution of AquaSil (Pierce, Rockford, Ill.). The GF/C glass-fiber filters (2.4 cm, Baxter, McGaw Park, Ill.) were pre-treated in a 0.1% solution of pH 7.4 polyethylenimine (Sigma Chemical Co.) for at least 6 hr.
(§1) In addition, multiple linear regression was used to calculate the overall degree of relationship between CB1 binding affinity and potency in the mouse measures for all active cannabinoids. […] Ki values for CB1 and CB2 binding were obtained from Scatchard displacement analysis as determined via EBDA program of the KELL software package (Biosoft, Milltown, N.J.).

CB1 receptor = CB1 receptor (Rattus norvegicus, UniProt P20272); assay: CB1 binding procedure: displacement of [3H]CP 55,940 from rat whole-brain P2 membranes; set-up: whole brain was homogenized and centrifuged; from tissue; host or cells: rat whole brain, P2 membrane fraction; settings: means ± SEM; [3H]CP 55,940, rat brain membranes; read-out: Ki (nM) CB1
CB1 receptor, sequence (P20272 whole entry): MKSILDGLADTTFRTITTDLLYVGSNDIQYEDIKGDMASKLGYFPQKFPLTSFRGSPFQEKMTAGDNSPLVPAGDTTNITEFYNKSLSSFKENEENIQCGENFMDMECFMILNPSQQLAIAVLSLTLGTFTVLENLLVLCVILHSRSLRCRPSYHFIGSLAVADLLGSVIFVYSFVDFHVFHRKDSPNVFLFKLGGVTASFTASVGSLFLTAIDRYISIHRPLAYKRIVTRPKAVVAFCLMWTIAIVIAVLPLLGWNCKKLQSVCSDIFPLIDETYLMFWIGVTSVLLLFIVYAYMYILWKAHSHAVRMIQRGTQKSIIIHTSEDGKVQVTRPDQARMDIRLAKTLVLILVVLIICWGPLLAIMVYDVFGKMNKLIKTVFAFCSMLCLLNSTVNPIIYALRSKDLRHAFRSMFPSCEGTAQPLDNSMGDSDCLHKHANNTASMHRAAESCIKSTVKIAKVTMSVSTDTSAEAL
Protocol: Male ICR mice (25–32 g), obtained from Harlan (Dublin, Va.), were housed in groups of five. All animals were kept in a temperature-controlled (20–22° C.) environment with a 12-hour light-dark cycle (lights on at 7 a.m.). Separate mice were used for testing each drug dose in the in vivo behavioral procedures. Brain tissue for binding studies was obtained from male Sprague-Dawley rats (150–200 g) purchased from Harlan Laboratories (Dublin, Va.).
The methods used for tissue preparation and binding have been described previously (Compton et al., 1993) and are similar to those described by Devane et al. (1988). All assays, as described briefly below, were performed in triplicate, and the results represent the combined data from three to six individual experiments.
Following decapitation and rapid removal of the brain, whole brain was homogenized and centrifuged. The resulting pellet was termed P1. The supernatant was saved and combined with the two subsequent supernatants obtained from washing of the P1 pellet. The combined supernatant fractions were centrifuged, resulting in the P2 pellet. After further incubation and centrifuging, this pellet was resuspended in assay buffer to a protein concentration of approximately 2 mg/ml. The membrane preparation was quickly frozen in a bath solution of dry ice and 2-methylbutane (Sigma Chemical Co., St. Louis, Mo.), then stored at −80° C. for no more than 2 weeks. Prior to performing a binding assay an aliquot of frozen membrane was rapidly thawed and protein values determined by the method of Bradford (1976).
Binding was initiated by the addition of 150 μg of P2 membrane to test tubes containing 1 nM of [^3H] CP 55,940 (79 Ci/mmol) and a sufficient quantity of buffer to bring the total incubation volume to 1 ml. Nonspecific binding was determined by the addition of 1 μM unlabeled CP 55,940. Following incubation at 30° C. for 1 hr, binding was terminated by addition of ice cold buffer and vacuum filtration through pretreated filters in a 12-well sampling manifold (Millipore, Bedford, Mass.). After washing, filters were placed into plastic scintillation vials (Packard, Downer Grove, Ill.) and shaken. The quantity of radioactivity present was determined by liquid scintillation spectrometry.
as §1

CCCCCCC(C)(C)c1cc(OC)c(C2(O)CCCCCC2)c(OC)c1 [O-2091, 1-(4-(1,1-Dimethylheptyl)-2,6-dimephenyl)-cycloheptan-1-ol]
CB1/CB2 (ratio of Ki) (CB2 receptor): 50
Ki (CB2 receptor): 64 ± 8 nM
fold increase in CB2 affinity (CB2 receptor; relative to the comparator analog): ~2 fold
Ki (CB1 receptor): 3200 ± 141 nM

CCCCCCC(C)(C)c1cc(OC)c(C2=CCOCC2)c(OC)c1 [O-1965, 4-(4-(1,1-Dimethylheptyl)-2,6-dimethoxy-phenyl)-3,6-dihydro-2H-pyran]
Ki (CB2 receptor): > 10000 nM
Ki (CB1 receptor): > 10000 nM

CCCCCCC(C)(C)c1cc(OC)c(C2(O)CC(C)CC(O)C2)c(OC)c1 (stereo not shown) [O-2121]
CB1/CB2 (ratio of Ki) (CB2 receptor): 20
Ki (CB2 receptor): 101 ± 14 nM
Ki (CB1 receptor): 1990 ± 77 nM

COc1cc(C)cc(OC)c1C1(O)CCCC(C)(C)C1 (stereo not shown) [O-2139, 1-(2,6-Dimethyoxy-methyl-phenyl)-3,3-dimethyl-cyclo-hexanol]
Ki (CB2 receptor): > 10000 nM
Ki (CB1 receptor): > 10000 nM

CCCCCCC(C)(C)c1cc(OC)c(C2(O)CCCCC2)c(OC)c1 [O-2072]
CB1/CB2 (ratio of Ki) (CB2 receptor): 55
Ki (CB2 receptor): 105 ± 19 nM
Ki (CB1 receptor): 5820 ± 662 nM

CCCCCCC(C)(C)c1cc(OC)c(C2=CCC(=O)CC2)c(OC)c1 [O-2114, 4-(4-(1,1-O-methyl-heptyl)-2,6-dimethoxy-phenyl)-cyclohex-3-enone]
CB1/CB2 (ratio of Ki) (CB2 receptor): 5
Ki (CB2 receptor): 1770 ± 184 nM
Ki (CB1 receptor): 8440 ± 954 nM

CCCCCCC(C)(C)c1cc(OCC)c(C2(O)CCCC(C)C2)c(OCC)c1 (stereo not shown) [O-2090]
CB1/CB2 (ratio of Ki) (CB2 receptor): 10
Ki (CB2 receptor): 858 ± 43 nM
Ki (CB1 receptor): 8810 ± 422 nM

CCCCCCC(C)(C)c1cc(OC)c(C2(O)CCC(O)CC2)c(OC)c1 (single isomer, unassigned) [O-2117B]
Ki (CB2 receptor): 1560 ± 70 nM
Ki (CB1 receptor): > 10000 nM

CCCCCCC(C)(C)c1cc(OC)c(C2(O)CCC3(CC2)OCCO3)c(OC)c1 [O-2092, 8-(4-(1,1-Dimethylheptyl)-2,6-dimphenyl)-1,4-dioxaspiro(4,5)decan-]
CB1/CB2 (ratio of Ki) (CB2 receptor): 36
Ki (CB2 receptor): 126 ± 12 nM
Ki (CB1 receptor): 4580 ± 312 nM

CCCCCCC(C)(C)c1cc(OC)c(C2(O)CCC(=O)CC2)c(OC)c1 [O-2115]
CB1/CB2 (ratio of Ki) (CB2 receptor): 13
Ki (CB2 receptor): 346 ± 49 nM
Ki (CB1 receptor): 4570 ± 173 nM

CCCCCCC(C)(C)c1cc(OC)c(C2(O)CCCC(C)(C)C2)c(OC)c1 (stereo not shown) [O-2068]
CB1/CB2 (ratio of Ki) (CB2 receptor): 47
Ki (CB2 receptor): 161 ± 24 nM
Ki (CB1 receptor): 7510 ± 721 nM

CCCCCCC(C)(C)c1cc(OC)c(C2(O)CCC(O)CC2)c(OC)c1 (single isomer, unassigned) [O-2116A]
CB1/CB2 (ratio of Ki) (CB2 receptor): 21
Ki (CB2 receptor): 190 ± 17 nM
Ki (CB1 receptor): 3930 ± 483 nM
